Earlier results, collected in patent US12447190B1, “Vasopressin premix systems and uses thereof” (Baxter International Inc., priority 2023, dated 2025).

How the values were obtained:
[1] = test system: patients with vasodilatory shock

NC(=O)CC[C@@H]1NC(=O)[C@H](Cc2ccccc2)NC(=O)[C@H](Cc2ccc(O)cc2)NC(=O)[C@@H](N)CSSC[C@@H](C(=O)N2CCC[C@H]2C(=O)N[C@@H](CCCN=C(N)N)C(=O)NCC(N)=O)NC(=O)[C@H](CC(N)=O)NC1=O [vasopressin, Cyclo (1-6) L-Cysteinyl-L-Tyrosyl-L-Phenylalanyl-L-Glutaminyl-L-Asparaginyl-L-Cysteinyl-L-Prolyl-L-Arginyl-L-Glycinamide]
time to steady state plasma concentrations (continuous intravenous infusion): 30 min | vasopressin plasma concentrations versus infusion rate (infusion rates from 10 to 200 U/kg/min): increases linearly | time for pressor effect to fade ([1]; after stopping the infusion): ≤ 20 min | time for pressor effect to reach its peak ([1]; infusion in patients): ≤ 15 min
